Here are results for 35 molecules from a melting point compilation (Tetko et al.; mined from patent text by program, amines drawn as free bases though some values may be those of a salt).

Turning to `COCCC1CCCCc2c1oc(=O)c(C(c1ccccc1)C1CC1)c2O` (stereo not given), the melting point (as a rule, the temperature, or range, at which the solid turns liquid) is 58 to 60 °C.

Regarding `CCC=Nc1cc(CO)cc(Nc2c3ccccc3nc3ccccc23)c1`, the melting point is 262 to 263 °C.

In turn, `Cc1cc(C(C)(O)c2ccc(C(F)(F)F)cn2)ccc1NC(=O)OC(C)(C)C` (stereo not given) returned a melting point of 132 to 134 °C.

Take `Cc1cnc(N2C(=O)C(O)=C(C(=O)c3ccc(C(C)C)cc3)C2c2ccc(OC(F)(F)F)cc2)cn1` (stereo not given): the melting point was in the range of 266 to 268 °C.

For the molecule `CC(C)(C)c1cc(-c2c(S)ssc2=S)cc(C(C)(C)C)c1O`, the melting point came out at 182 °C.

For the molecule `NS(=O)(=O)c1cccc(NC(=O)c2cnn3c(C(F)(F)F)cc(-c4ccc(OC(F)(F)F)cc4)nc23)c1`, the melting point came out at 257 °C.

`C=C(C)COc1cc(C)c(NC=O)c(C)c1CC(=C)C` gave a melting point of 109 °C.

For `CN(C)C1(c2ccccc2)CCC(CNC(=O)Oc2ccccc2)CC1` (stereo not given), the melting point lay in the range of 108 to 124 °C.

In the case of `O=C1[C@@H]2C[C@H](Oc3ccc(Br)cc3)CN2C(=O)N1c1cc(Cl)cc(Cl)c1`, the melting point worked out at 116 °C.

`CCc1ccc2c(c1)C(c1ccccc1F)=NCc1cnc(C)n1-2` registered a melting point of 152 to 154 °C.

Consider `CCOC(=O)C1=C(C)NC2=C(C(=O)N(CCO)C2)C1c1ccccc1[N+](=O)[O-]` (stereo not given), for which the melting point was in the range of 210 to 211 °C.

As to `C#CCN(C(C)=O)c1cccc(-c2ccnc3c(C#N)cnn23)c1`, the melting point was in the range of 193 to 195 °C.

Molecule `COCOc1ccccc1-c1cc(-c2ccccc2C(=O)OC)c(C#N)c(N)n1` registered a melting point of 109 to 110 °C.

Take `Cc1cc(N2CCNC(=O)N2)cc(Cl)c1SCc1ccc(Cl)cc1`: the melting point lay within 165 to 167 °C.

Molecule `O=C1CCCN(C(=O)Cc2ccccc2)C(=O)CCc2cc(Cl)ccc21` gave a melting point of 178 to 180 °C.

`CC(c1cc(F)ccc1O)c1cc(Cl)cc(Cl)c1O` (stereo not given) returned a melting point of 150 °C.

`CCOC(=O)C1(CCCN(C)C)CCCCC1(O)c1ccccc1` (stereo not given): the melting point lay in the range of 97 to 99 °C.

In the case of `CC(C)[C@@H](NC(=O)c1cnc(N2CCC(N3C(=O)OCc4ccccc43)CC2)c(Cl)c1)C(N)=O`, the melting point fell in the range of 140 to 143 °C.

With `CN(C(=O)OC(C)(C)C)[C@@H]1CCc2c(c3cc(S(=O)(=O)c4ccccc4)ccc3n2C)C1`, the melting point was in the range of 181 to 183 °C.

The molecule `CN(C)C(=O)c1ccc(C(N)=O)cc1S(N)(=O)=O` registered a melting point of 202 to 205 °C.

`COc1cccc(C=CCN2CCc3nc(N)sc3CC2)c1` registered a melting point of 120 to 124 °C.

In the case of `Cc1nnnn1-c1ccccc1S(N)(=O)=O`, the melting point fell in the range of 141 to 148 °C.

As to `CC(OS(C)(=O)=O)C(C)N1C(=O)c2ccccc2C1=O` (stereo not given), the melting point lay in the range of 67 to 73 °C.

`Fc1ccc(-c2c[nH]c3ccccc23)cc1` returned a melting point of 98 to 100 °C.

`CCCCC[C@H]1CC[C@H](c2ccc(Br)nn2)CC1` came in with a melting point of 101 to 103 °C.

`O=C(O)C(c1ccccc1)n1cnc2[nH]ncc2c1=S` (stereo not given): the melting point was in the range of 95 to 98 °C.

Turning to `CCOC1Nc2c(ccc(C)c2O)C(=O)N2CCCC12` (stereo not given), the melting point lay in the range of 155 to 157 °C.

`O=c1oc2c(c(O)c1C(c1ccccc1)C1CC1)CCCCC2CC1CCCOC1` (stereo not given) gave a melting point of 82 to 90 °C.

As for `Fc1ccc(NC(=S)c2ccccn2)c(F)c1`, the melting point lay in the range of 124 to 129 °C.

The molecule `CCOC(=O)CCC(C#N)(c1ccccc1)C(C)C` (stereo not given) came in with a melting point of 82 to 84 °C.

In turn, `CCCN(CCC)C1Cc2cccc3c2n(c(=O)n3C)C1` (stereo not given) had a melting point of 83 to 85 °C.

As to `CCC(C)S(=O)(=O)c1snc(OC(F)F)c1C#N` (stereo not given), the melting point was 42 to 43 °C.

In turn, `O=C1NC(=O)c2ccccc2/C1=C/Nc1ccc2cn[nH]c2c1` showed a melting point greater than 300 °C.

`CCC1CCCCN1C(=O)C=Cc1c(-c2cccc(N)c2)nn2ccccc12` (stereo not given) returned a melting point of 150 to 151 °C.

`CCCc1c(OCCc2cc3cc(CC(=O)O)ccc3[nH]2)ccc2c(-c3ccccc3)coc12`: the melting point was 129 to 130 °C.
